Data from patent US6191115A, “C-terminus modified heptapeptide LHRH analogs” (Abbott Laboratories, priority 1999, dated 2001).
Non-standard residues stand in square brackets, D forms with d. Residues, ends and D or L forms follow the SMILES beside them. *: point of attachment. dPhe(4-Cl) = N[C@H](Cc1ccc(Cl)cc1)C(=O)O; NH(2-(2-pyridyl)ethyl) = c1ccc(CCN*)nc1; d2Nal = N[C@H](Cc1ccc2ccccc2c1)C(=O)O; NMeY = CN[C@@H](Cc1ccc(O)cc1)C(=O)O; d3Pal = N[C@H](Cc1cccnc1)C(=O)O; NHPhenethyl = c1ccc(CCN*)cc1; Nicotinoyl = O=C(c1cccnc1)*; NH(CH2)8NH2 = NCCCCCCCCN*; NH(CH2)6NH2 = NCCCCCCN*; X9 = CC(C)NCCCCCCCCCCN*; NH(CH2)5NH2 = NCCCCCN*; NH(CH2)4NH2 = NCCCCN*; X13 = C(CN*)CN1CCOCC1; X1 = CC1CCCCN1CCCN*; X11 = CC(C)NCCCCCN*; NHCH2CH2OH = OCCN*; X2 = N=C(N)NCCN*; NHBu = CCCCN*

Target: T1, LH release from rat pituitary cells (Rattus norvegicus, UniProt P30969)
T1 sequence (P30969 1-327): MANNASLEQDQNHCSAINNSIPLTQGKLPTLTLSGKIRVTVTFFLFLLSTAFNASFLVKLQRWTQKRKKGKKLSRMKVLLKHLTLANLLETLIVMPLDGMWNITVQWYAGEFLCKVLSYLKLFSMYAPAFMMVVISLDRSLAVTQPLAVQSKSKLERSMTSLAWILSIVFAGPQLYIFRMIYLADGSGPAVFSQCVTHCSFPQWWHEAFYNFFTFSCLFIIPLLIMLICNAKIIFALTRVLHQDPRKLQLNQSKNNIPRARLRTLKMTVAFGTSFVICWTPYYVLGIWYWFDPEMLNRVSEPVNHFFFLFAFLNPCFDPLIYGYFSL
Assay: in vitro inhibition of LH release from rat pituitary cells (pA2)
Assay type: cell-based
Conditions: pA2 = negative logarithm of antagonist concentration required to shift the response curve of the agonist leuprolide to two-fold higher concentration
Description: Representative compounds of the present invention were evaluated in vitro for inhibition of LH release from rat pituitary cells (pA2). Methods for the assay procedures arc described by F. Haviv, et al. J. Med. Chem., 32:2340-2344 (1989). Values of pA2 are the negative logarithms of the concentration of the particular antagonist test compound required to shift the response curve produced by the agonist leuprolide to two-fold higher concentration. Typically values of 7.0 or greater are indicative of good LHRH antagonist potency, with values of 8.0 or greater being preferred. Leuprolide LHRH agonist, disclosed and claimed in U.S. Pat. No. 4,005,063, has the structure 5-oxo-Pro^1 -His^2 -Trp^3 -Ser^4 -Tyr^5 -D-Leu^6 -Leu^7 -Arg^8 -Pro^9 -NHEt.

| SMILES | LHRH antagonist potency (pA2) |
| --- | --- |
| CC(=O)N[C@H](Cc1ccc2ccccc2c1)C(=O)N[C@H](Cc1ccc(Cl)cc1)C(=O)N[C@H](Cc1cccnc1)C(=O)N[C@@H](CO)C(=O)N(C)[C@@H](Cc1ccc(O)cc1)C(=O)N[C@H](CCCCNC(=O)c1cccnc1)C(=O)N[C@@H](CC(C)C)C(=O)NCCCN1CCOCC1 [Example 31, NAcD2Nal-D4ClPhe-D3Pal-Ser-NMeTyr-DLys(Nic)-Leu-NH--CH2 CH2 CH2 -(1-morpholine)] (Ac-[d2Nal][dPhe(4-Cl)][d3Pal]S[NMeY][dK](Nicotinoyl)L-X13) | 9.30 |
| CC(=O)N[C@H](Cc1ccc2ccccc2c1)C(=O)N[C@H](Cc1ccc(Cl)cc1)C(=O)N[C@H](Cc1cccnc1)C(=O)N[C@@H](CO)C(=O)N(C)[C@@H](Cc1ccc(O)cc1)C(=O)N[C@H](CCCCNC(=O)c1cccnc1)C(=O)N[C@@H](CC(C)C)C(=O)NCCCCCCN [Example 5, NAcD2Nal-D4ClPhe-D3Pal-Ser-NMeTyr-DLys(Nic)-Leu-NH--(CH2)6 NH2] (Ac-[d2Nal][dPhe(4-Cl)][d3Pal]S[NMeY][dK](Nicotinoyl)L-{NH(CH2)6NH2}) | 9.91 |
| CC(=O)N[C@H](Cc1ccc2ccccc2c1)C(=O)N[C@H](Cc1ccc(Cl)cc1)C(=O)N[C@H](Cc1cccnc1)C(=O)N[C@@H](CO)C(=O)N(C)[C@@H](Cc1ccc(O)cc1)C(=O)N[C@H](CCCCNC(=O)c1cccnc1)C(=O)N[C@@H](CC(C)C)C(=O)NCCCCCN [Example 13, NAcD2Nal-D4ClPhe-D3Pal-Ser-NMeTyr-DLys(Nic)-Leu-NH--(CH2)5 NH2] (Ac-[d2Nal][dPhe(4-Cl)][d3Pal]S[NMeY][dK](Nicotinoyl)L-{NH(CH2)5NH2}) | 9.30 |
| CC(=O)N[C@H](Cc1ccc2ccccc2c1)C(=O)N[C@H](Cc1ccc(Cl)cc1)C(=O)N[C@H](Cc1cccnc1)C(=O)N[C@@H](CO)C(=O)N(C)[C@@H](Cc1ccc(O)cc1)C(=O)N[C@H](CCCCNC(=O)c1cccnc1)C(=O)N[C@@H](CC(C)C)C(=O)NCCCCN [Example 6, NAcD2Nal-D4ClPhe-D3Pal-Ser-NMeTyr-DLys(Nic)-Leu-NH--(CH2)4 NH2] (Ac-[d2Nal][dPhe(4-Cl)][d3Pal]S[NMeY][dK](Nicotinoyl)L-{NH(CH2)4NH2}) | 9.90 |
| CC(=O)N[C@H](Cc1ccc2ccccc2c1)C(=O)N[C@H](Cc1ccc(Cl)cc1)C(=O)N[C@H](Cc1cccnc1)C(=O)N[C@@H](CO)C(=O)N(C)[C@@H](Cc1ccc(O)cc1)C(=O)N[C@H](CCCCNC(=O)c1cccnc1)C(=O)N[C@@H](CC(C)C)C(=O)NCCCCCCCCN [Example 18, NAcD2Nal-D4ClPhe-D3Pal-Ser-NMeTyr-DLys(Nic)-Leu-NH--(CH2)8 NH2] (Ac-[d2Nal][dPhe(4-Cl)][d3Pal]S[NMeY][dK](Nicotinoyl)L-{NH(CH2)8NH2}) | 8.48 |
| CCCCNC(=O)[C@H](CC(C)C)NC(=O)[C@@H](CCCCNC(=O)c1cccnc1)NC(=O)[C@H](Cc1ccc(O)cc1)N(C)C(=O)[C@H](CO)NC(=O)[C@@H](Cc1cccnc1)NC(=O)[C@@H](Cc1ccc(Cl)cc1)NC(=O)[C@@H](Cc1ccc2ccccc2c1)NC(C)=O [Example 1, NAcD2Nal-D4ClPhe-D3Pal-Ser-NMeTyr-DLys(Nic)-Leu-NH-nBu] (Ac-[d2Nal][dPhe(4-Cl)][d3Pal]S[NMeY][dK](Nicotinoyl)L-NHBu) | 7.90 |
| CC(=O)N[C@H](Cc1ccc2ccccc2c1)C(=O)N[C@H](Cc1ccc(Cl)cc1)C(=O)N[C@H](Cc1cccnc1)C(=O)N[C@@H](CO)C(=O)N(C)[C@@H](Cc1ccc(O)cc1)C(=O)N[C@H](CCCCNC(=O)c1cccnc1)C(=O)N[C@@H](CC(C)C)C(=O)NCCCN1CCCCC1C (stereo partly drawn) [Example 32, NAcD2Nal-D4ClPhe-D3Pal-Ser-NMeTyr-DLys(Nic)-Leu-NH--CH2 CH2 CH2 -[1-(2-methyl)piperidine]] (Ac-[d2Nal][dPhe(4-Cl)][d3Pal]S[NMeY][dK](Nicotinoyl)L-X1) | 9.07 |
| CC(=O)N[C@H](Cc1ccc2ccccc2c1)C(=O)N[C@H](Cc1ccc(Cl)cc1)C(=O)N[C@H](Cc1cccnc1)C(=O)N[C@@H](CO)C(=O)N(C)[C@@H](Cc1ccc(O)cc1)C(=O)N[C@H](CCCCNC(=O)c1cccnc1)C(=O)N[C@@H](CC(C)C)C(=O)NCCNC(=N)N [Example 16, NAcD2Nal-D4ClPhe-D3Pal-Ser-NMeTyr-DLys(Nic)-Leu-NH--(CH2)2 NH(C=NH)NH2] (Ac-[d2Nal][dPhe(4-Cl)][d3Pal]S[NMeY][dK](Nicotinoyl)L-X2) | 8.89 |
| CC(=O)N[C@H](Cc1ccc2ccccc2c1)C(=O)N[C@H](Cc1ccc(Cl)cc1)C(=O)N[C@H](Cc1cccnc1)C(=O)N[C@@H](CO)C(=O)N(C)[C@@H](Cc1ccc(O)cc1)C(=O)N[C@H](CCCCNC(=O)c1cccnc1)C(=O)N[C@@H](CC(C)C)C(=O)NCCc1ccccc1 [Example 8, NAcD2Nal-D4ClPhe-D3Pal-Ser-NMeTyr-DLys(Nic)-Leu-NH--(CH2)2 -phenyl] (Ac-[d2Nal][dPhe(4-Cl)][d3Pal]S[NMeY][dK](Nicotinoyl)L-NHPhenethyl) | 8.48 |
| CC(=O)N[C@H](Cc1ccc2ccccc2c1)C(=O)N[C@H](Cc1ccc(Cl)cc1)C(=O)N[C@H](Cc1cccnc1)C(=O)N[C@@H](CO)C(=O)N(C)[C@@H](Cc1ccc(O)cc1)C(=O)N[C@H](CCCCNC(=O)c1cccnc1)C(=O)N[C@@H](CC(C)C)C(=O)NCCCCCNC(C)C [Example 12, NAcD2Nal-D4ClPhe-D3Pal-Ser-NMeTyr-DLys(Nic)-1-Leu-NH--(CH2)5 NH-isopropyl] (Ac-[d2Nal][dPhe(4-Cl)][d3Pal]S[NMeY][dK](Nicotinoyl)L-X11) | 10.45 |
| CC(=O)N[C@H](Cc1ccc2ccccc2c1)C(=O)N[C@H](Cc1ccc(Cl)cc1)C(=O)N[C@H](Cc1cccnc1)C(=O)N[C@@H](CO)C(=O)N(C)[C@@H](Cc1ccc(O)cc1)C(=O)N[C@H](CCCCNC(=O)c1cccnc1)C(=O)N[C@@H](CC(C)C)C(=O)NCCc1ccccn1 [Example 28, NAcD2Nal-D4ClPhe-D3Pal-Ser-NMeTyr-DLys(Nic)-Leu-NH--CH2 --CH2 -(2-pyridine)] (Ac-[d2Nal][dPhe(4-Cl)][d3Pal]S[NMeY][dK](Nicotinoyl)L-{NH(2-(2-pyridyl)ethyl)}) | 8.10 |
| CC(=O)N[C@H](Cc1ccc2ccccc2c1)C(=O)N[C@H](Cc1ccc(Cl)cc1)C(=O)N[C@H](Cc1cccnc1)C(=O)N[C@@H](CO)C(=O)N(C)[C@@H](Cc1ccc(O)cc1)C(=O)N[C@H](CCCCNC(=O)c1cccnc1)C(=O)N[C@@H](CC(C)C)C(=O)NCCO [Example 7, NAcD2Nal-D4ClPhe-D3Pal-Ser-NMeTyr-DLys(Nic)-Leu-NH--(CH2)2 OH] (Ac-[d2Nal][dPhe(4-Cl)][d3Pal]S[NMeY][dK](Nicotinoyl)L-NHCH2CH2OH) | 8.95 |
| CC(=O)N[C@H](Cc1ccc2ccccc2c1)C(=O)N[C@H](Cc1ccc(Cl)cc1)C(=O)N[C@H](Cc1cccnc1)C(=O)N[C@@H](CO)C(=O)N(C)[C@@H](Cc1ccc(O)cc1)C(=O)N[C@H](CCCCNC(=O)c1cccnc1)C(=O)N[C@@H](CC(C)C)C(=O)NCCCCCCCCCCNC(C)C [Example 21, NAcD2Nal-D4ClPhe-D3Pal-Ser-NMeTyr-DLys(Nic)-Leu-NH--(CH2)10 NH-isopropyl] (Ac-[d2Nal][dPhe(4-Cl)][d3Pal]S[NMeY][dK](Nicotinoyl)L-X9) | 8.42 |
